Assay results: patent US10556883B2, “Benzenesulfonamide compounds, method for synthesizing same, and use thereof in medicine and cosmetics” (GALDERMA RESEARCH & DEVELOPMENT, priority 2016, dated 2020)

Each molecule was assayed on TNFα secretion from LPS stimulated frozen Peripheral Blood Mononuclear Cells (PBMC) (assay: inhibition of TNFα secretion from LPS stimulated human PBMC (hPBMC assay)). Conditions: LPS 1 μg/mL, overnight incubation, TNFα by HTRF.
Format: cell-based
Experimental: Activity of the compounds was investigated using human peripheral blood mononuclear cells (hPBMC). This assay was designed to measure the inhibition of the TNFα secretion from LPS stimulated frozen Peripheral Blood Mononuclear Cells (PBMC) isolated from human blood. TNFα levels were measured using HTRF® Human TNFα kit (Cisbio #62TNFPEC) which is a rapid and quantitative sandwich immunoassay based on TR-FRET technology.
Frozen PBMC were quickly thawed, resuspended in culture medium (RPMI 10% inactivated FBS) and viable cells were seeded in 96-well plates (50,000 cells/well). […] After overnight incubation at 37° C., 10 μL of cell supernatant were mixed with 5 μL of each tagged anti-TNFα specific antibody as recommended by the supplier. After 2 hours of incubation at room temperature, the HTRF® signals were measured using a microplate reader (wavelengths: excitation=337 nm, first emission=620 nm, second emission=665 nm).
`CC(=O)N1CC(CC(=O)NO)(NS(=O)(=O)c2ccc(OCc3cc(C)nc4ccccc34)cc2)C1` [Example 1, 2-(1-acetyl-3-((4-((2-methylquinolin-4-yl)methoxy)phenyl)sulfonamido)azetidin-3-yl)-N-hydroxyacetamide] was tested, and the IC50 was under 50 nM. With `Cc1cc(COc2ccc(S(=O)(=O)NC3(CC(=O)NO)CN(C(=O)OC(C)(C)C)C3)cc2)c2ccccc2n1` [Example 2, Tert-butyl 3-(2-(hydroxyamino)-2-oxoethyl)-3-((4-((2-methylquinolin-4-yl)methoxy)phenyl)sulfonamido)azetidine-1-carboxylate] the IC50 was under 50 nM. With `CC(=O)N1CC(CC(=O)NO)(N(C)S(=O)(=O)c2ccc(OCc3cc(C)nc4ccccc34)cc2)C1` [Example 3, 2-(1-acetyl-3-((N-methyl-4-((2-methylquinolin-4-yl)methoxy)phenyl)sulfonamido)azetidin-3-yl)-N-hydroxyacetamide] the IC50 was 500 to 1000 nM. `Cc1cc(COc2ccc(S(=O)(=O)NC3(CC(=O)NO)CN(C(=O)CC(C)C)C3)cc2)c2ccccc2n1` [Example 4a, N-hydroxy-2-(1-(3-methylbutanoyl)-3-((4-((2-methylquinolin-4-yl)methoxy)phenyl)sulfonamido)azetidin-3-yl)acetamide] showed an IC50 of under 50 nM. `Cc1cc(COc2ccc(S(=O)(=O)NC3(CC(=O)NO)CN(C(=O)C(C)C)C3)cc2)c2ccccc2n1` [Example 4b, N-hydroxy-2-(1-isobutyryl-3-((4-((2-methylquinolin-4-yl)methoxy)phenyl)sulfonamido)azetidin-3-yl)acetamide] was tested, and the IC50 was under 50 nM. For `Cc1cc(COc2ccc(S(=O)(=O)NC3(CC(=O)NO)CN(C(=O)C4CC4)C3)cc2)c2ccccc2n1` [Example 4c, 2-(1-(cyclopropanecarbonyl)-3-((4-((2-methylquinolin-4-yl)methoxy)phenyl)sulfonamido)azetidin-3-yl)-N-hydroxyacetamide], the IC50 was under 50 nM. `Cc1cc(COc2ccc(S(=O)(=O)NC3(CC(=O)NO)CN(C(=O)C(C)(C)C)C3)cc2)c2ccccc2n1` [Example 4d, N-hydroxy-2-(3-((4-((2-methylquinolin-4-yl)methoxy)phenyl)sulfonamido)-1-pivaloylazetidin-3-yl)acetamide] was tested, and the IC50 was under 50 nM. `CCCC(=O)N1CC(CC(=O)NO)(NS(=O)(=O)c2ccc(OCc3cc(C)nc4ccccc34)cc2)C1` [Example 4e, 2-(1-butyryl-3-((4-((2-methylquinolin-4-yl)methoxy)phenyl)sulfonamido)azetidin-3-yl)-N-hydroxyacetamide] gave an IC50 of under 50 nM. `COCC(=O)N1CC(CC(=O)NO)(NS(=O)(=O)c2ccc(OCc3cc(C)nc4ccccc34)cc2)C1` [Example 4f, N-hydroxy-2-(1-(2-methoxyacetyl)-3-((4-((2-methylquinolin-4-yl)methoxy)phenyl)sulfonamido)azetidin-3-yl)acetamide] showed an IC50 of under 50 nM. `Cc1cc(COc2ccc(S(=O)(=O)NC3(CC(=O)NO)CN(C(=O)C4CCOCC4)C3)cc2)c2ccccc2n1` [Example 4g, N-hydroxy-2-(3-((4-((2-methylquinolin-4-yl)methoxy)phenyl)sulfonamido)-1-(tetrahydro-2H-pyran-4-carbonyl)azetidin-3-yl)acetamide] gave an IC50 of under 50 nM. In the case of `Cc1cc(COc2ccc(S(=O)(=O)NC3(CC(=O)NO)CN(C(=O)C4CCCC4)C3)cc2)c2ccccc2n1` [Example 4h, 2-(1-(cyclopentanecarbonyl)-3-((4-((2-methylquinolin-4-yl)methoxy)phenyl)sulfonamido)azetidin-3-yl)-N-hydroxyacetamide], the IC50 is reported as under 50 nM. `CCC(CC)C(=O)N1CC(CC(=O)NO)(NS(=O)(=O)c2ccc(OCc3cc(C)nc4ccccc34)cc2)C1` [Example 4i, 2-(1-(2-ethylbutanoyl)-3-((4-((2-methylquinolin-4-yl)methoxy)phenyl)sulfonamido)azetidin-3-yl)-N-hydroxyacetamide] was tested, and the IC50 was under 50 nM. `Cc1cc(COc2ccc(S(=O)(=O)NC3(CC(=O)NO)CN(C(=O)C4CCCCC4)C3)cc2)c2ccccc2n1` [Example 4j, 2-(1-(cyclohexanecarbonyl)-3-((4-((2-methylquinolin-4-yl)methoxy)phenyl)sulfonamido)azetidin-3-yl)-N-hydroxyacetamide] was tested, and the IC50 was under 50 nM. Molecule `CCOC(=O)N1CC(CC(=O)NO)(NS(=O)(=O)c2ccc(OCc3cc(C)nc4ccccc34)cc2)C1` [Example 5a, Ethyl 3-(2-(hydroxyamino)-2-oxoethyl)-3-((4-((2-methylquinolin-4-yl)methoxy)phenyl)sulfonamido)azetidine-1-carboxylate] has an IC50 of under 50 nM. With `COC(=O)N1CC(CC(=O)NO)(NS(=O)(=O)c2ccc(OCc3cc(C)nc4ccccc34)cc2)C1` [Example 5b, methyl 3-(2-(hydroxyamino)-2-oxoethyl)-3-((4-((2-methylquinolin-4-yl)methoxy)phenyl)sulfonamido)azetidine-1-carboxylate] the IC50 was under 50 nM. `C=CCOC(=O)N1CC(CC(=O)NO)(NS(=O)(=O)c2ccc(OCc3cc(C)nc4ccccc34)cc2)C1` [Example 5c, allyl 3-(2-(hydroxyamino)-2-oxoethyl)-3-((4-((2-methylquinolin-4-yl)methoxy)phenyl)sulfonamido)azetidine-1-carboxylate] gave an IC50 of under 50 nM. For `Cc1cc(COc2ccc(S(=O)(=O)NC3(CC(=O)NO)CN(C(=O)OC(C)C)C3)cc2)c2ccccc2n1` [Example 5d, isopropyl 3-(2-(hydroxyamino)-2-oxoethyl)-3-((4-((2-methylquinolin-4-yl)methoxy)phenyl)sulfonamido)azetidine-1-carboxylate], the IC50 was under 50 nM. For `CC(=O)N1CC(CC(=O)NO)(NS(=O)(=O)c2ccc(OCc3cc(C)nc4c(F)cccc34)cc2)C1` [Example 6, 2-(1-acetyl-3-((4-((8-fluoro-2-methylquinolin-4-yl)methoxy)phenyl)sulfonamido)azetidin-3-yl)-N-hydroxyacetamide], the IC50 was 50 to 100 nM. `Cc1cc(COc2ccc(S(=O)(=O)NC3(C(=O)NO)CN(C(=O)C(C)(C)C)C3)cc2)c2ccccc2n1` [Example 7a, N-hydroxy-3-((4-((2-methylquinolin-4-yl)methoxy)phenyl)sulfonamido)-1-pivaloylazetidine-3-carboxamide] showed an IC50 of 50 to 100 nM. `Cc1cc(COc2ccc(S(=O)(=O)NC3(C(=O)NO)CN(C(=O)CC(C)C)C3)cc2)c2ccccc2n1` [Example 7c, N-hydroxy-1-(3-methylbutanoyl)-3-((4-((2-methylquinolin-4-yl)methoxy)phenyl)sulfonamido)azetidine-3-carboxamide] gave an IC50 of under 50 nM. `Cc1cc(COc2ccc(S(=O)(=O)NC3(C(=O)NO)CN(C(=O)C4CCOCC4)C3)cc2)c2ccccc2n1` [Example 7d, N-hydroxy-3-((4-((2-methylquinolin-4-yl)methoxy)phenyl)sulfonamido)-1-(tetrahydro-2H-pyran-4-carbonyl)azetidine-3-carboxamide] was tested, and the IC50 was under 50 nM. For `Cc1cc(COc2ccc(S(=O)(=O)NC3(C(=O)NO)CN(C(=O)C4CCC4)C3)cc2)c2ccccc2n1` [Example 7e, 1-(cyclobutanecarbonyl)-N-hydroxy-3-((4-((2-methylquinolin-4-yl)methoxy)phenyl)sulfonamido)azetidine-3-carboxamide], the IC50 was under 50 nM. In the case of `CCC(CC)C(=O)N1CC(NS(=O)(=O)c2ccc(OCc3cc(C)nc4ccccc34)cc2)(C(=O)NO)C1` [Example 7f, 1-(2-ethylbutanoyl)-N-hydroxy-3-((4-((2-methylquinolin-4-yl)methoxy)phenyl)sulfonamido)azetidine-3-carboxamide], the IC50 is reported as 50 to 100 nM. `CCC(=O)N1CC(NS(=O)(=O)c2ccc(OCc3cc(C)nc4ccccc34)cc2)(C(=O)NO)C1` [Example 7g, N-hydroxy-3-((4-((2-methylquinolin-4-yl)methoxy)phenyl)sulfonamido)-1-propionylazetidine-3-carboxamide] showed an IC50 of under 50 nM. `CCCC(=O)N1CC(NS(=O)(=O)c2ccc(OCc3cc(C)nc4ccccc34)cc2)(C(=O)NO)C1` [Example 7h, 1-butyryl-N-hydroxy-3-((4-((2-methylquinolin-4-yl)methoxy)phenyl)sulfonamido)azetidine-3-carboxamide] showed an IC50 of under 50 nM. Molecule `CCCCC(=O)N1CC(NS(=O)(=O)c2ccc(OCc3cc(C)nc4ccccc34)cc2)(C(=O)NO)C1` [Example 7i, N-hydroxy-3-((4-((2-methylquinolin-4-yl)methoxy)phenyl)sulfonamido)-1-pentanoylazetidine-3-carboxamide] has an IC50 of under 50 nM. In the case of `CC(=O)N1CC(NS(=O)(=O)c2ccc(OCc3cc(C)nc4ccccc34)cc2)(C(=O)NO)C1` [Example 8, 1-acetyl-N-hydroxy-3-((4-((2-methylquinolin-4-yl)methoxy)phenyl)sulfonamido) azetidine-3-carboxamide], the IC50 is reported as under 50 nM. `Cc1cc(COc2ccc(S(=O)(=O)NC3(CC(=O)NO)CN(C(=O)N4CCCCC4)C3)cc2)c2ccccc2n1` [Example 9, N-hydroxy-2-(3-((4-((2-methylquinolin-4-yl)methoxy)phenyl)sulfonamido)-1-(piperidine-1-carbonyl)azetidin-3-yl)acetamide] was tested, and the IC50 was under 50 nM. `Cc1cc(COc2ccc(S(=O)(=O)NC3(CC(=O)NO)CN(C(=O)CN4CCCCC4)C3)cc2)c2ccccc2n1` [Example 12, N-hydroxy-2-(3-((4-((2-methylquinolin-4-yl)methoxy)phenyl)sulfonamido)-1-(2-(piperidin-1-yl)acetyl)azetidin-3-yl)acetamide] was tested, and the IC50 was under 50 nM. Work on `Cc1cc(COc2ccc(S(=O)(=O)NC3(CC(=O)NO)CN(C(=O)CC4CCC4)C3)cc2)c2ccccc2n1` [Example 13, 2-(1-(2-cyclobutylacetyl)-3-((4-((2-methylquinolin-4-yl)methoxy)phenyl)sulfonamido)azetidin-3-yl)-N-hydroxyacetamide] yielded an IC50 of under 50 nM.
